A short description of series [1]: Solubility in 1-propanol relative to other alcohols. Type of series: physicochemical. The source says: Using 1-propanol as an extracting solvent allows fast and simple sample processing. The procedure has been simplified to a single extraction and no evaporation process is needed. This allows for efficient sample handling. Extraction of CoQ10H2 and CoQ10 from a variety of biological matrices is made facile with 1-propanol, because it can be mixed with water in any proportion. […] Thus, 1-propanol is an effective extraction solvent (Table 2). The 1-propanol extract can be directly analyzed by the described HPLC-EC method. Furthermore, this procedure takes advantage of the use of CoQ9 as an internal standard. Because the levels of CoQ9 in human blood are negligible, it is desirable to spike control samples with this CoQ9 to validate the extraction process.

The conditions of series [2]: cited from earlier work.
Series [3] in a line: Stability of CoQ10H2 in 1-propanol extract. Type of series: physicochemical, human. The method, then:
(§1) Each frozen sample is thawed at room temperature, and 100 μl of this sample is placed in a 1.5-ml capped polypropylene tube containing 50 μl of internal standard solution (CoQ9, 2 μg/mL in 1-propanol). All the tubes are kept in an ice-bath. This is mixed with 850 μl of cold 1-propanol. The tubes are vortexed for 2 minutes on a mechanical vortexer and centrifuged for 10 min at 0-4° C. The resulting supernatant is separated from the precipitate and transferred to an autosampler glass vial. The sample vial is immediately placed in the autosampler tray at 0-4° C. A batch of up to 20 samples can be extracted and processed at the same time. An aliquot of 20 μl of 1-propanol extract from a vial is injected immediately onto an automated HPLC. Twenty samples can be analyzed sequentially, within 4 hours.

A short description of series [4]: Stability of CoQ10H2 in refrigerated blood samples in vacutainers. Format: physicochemical, human. The procedure:
When blood samples in vacutainers are opened and kept refrigerated, the CoQ10H2:TQ10 ratios (n=30) in EDTA samples decreased by ˜30% over 7 h, whereas the CoQ10H2:TQ10 ratios in heparinized samples were stable over the same period with variation of less than 3% (median 0.949; range 0.927-0.970; n=30). There was as significant difference of CoQ10H2:TQ10 ratios in heparin in EDTA (P=0.028). The observed findings therefore reflect the effect of air-exposure on EDTA samples during the blood sampling procedure. The results also indicate that delays, in processing and analyzing EDTA samples would result in lowered and variable CoQ10H2:TQ10 ratios.
CoQ10H2 is not stable and is oxidized in air at room temperature. CoQ10H2 is unstable in whole blood, plasma and n-propanol extract when EDTA is used as anticoagulant. EDTA-anticoagulated blood loses approximately 15% of CoQ10H2 within 4 hours when stored in refrigeration (4° C.), whereas only <1% loss of CoQ10H2 occurs in heparin-anticoagulated blood under the same conditions (FIG. 6). When fresh blood samples in closed heparin vacutainers are kept refrigerated, no significant difference in CoQ10H2:TQ10 ratios was observed between samples stored for 0 h and 24 h (P=0.052). The median CoQ10H2:TQ10 ratio stored for 24 h was 0.955 (range 0.923-0.972; n=8) in comparison to the initial value of 0.964 (range 0.935-0.978; n=8). The CoQ10H2:TQ10 ratios decreased by ˜6% after 48 h and by ˜28% after 72 h. Storage of blood specimens in VACUTAINERS at +4° C. […] Okamoto et al reported the percentage of CoQ10H2 with respect to the TQ10 was constant in plasma for one day when kept at 2° C. and −10° C.

The nature of series [5]: Stability of CoQ10H2 in frozen plasma. Format: physicochemical, human. To be noted: plasma kept frozen at −75° C. or below. The method, then: (§2) According to the present invention, venous blood is collected into a VACUTAINER containing heparin as anticoagulant and mixed gently by inversion 5-6 times. At this point the blood-heparin tube is securely capped, and is then placed in ice and/or kept in refrigeration prior to processing. The blood-heparin tube should be processed within 4 hours. Blood samples should not be collected in tubes containing metal chelators, such as ethylenediaminetetraacetic acid (EDTA). The blood-heparin tube is subject to centrifugation at an appropriate speed such as 3000 rpm for 10 minutes at 4° C. Heparinized plasma is separated from red blood cells and placed in a capped polypropylene tube and immediately stored at −75° C. or below until analysis.
CoQ10H2 is not stable and is oxidized in air at room temperature. CoQ10H2 is unstable in whole blood, plasma and n-propanol extract when EDTA is used as anticoagulant. EDTA-anticoagulated blood loses approximately 15% of CoQ10H2 within 4 hours when stored in refrigeration (4° C.), whereas only <1% loss of CoQ10H2 occurs in heparin-anticoagulated blood under the same conditions (FIG. 6). When fresh blood samples in closed heparin vacutainers are kept refrigerated, no significant difference in CoQ10H2:TQ10 ratios was observed between samples stored for 0 h and 24 h (P=0.052). […]

Series [6] in a line: CoQ10H2 and TQ10 in paired heparin versus EDTA plasma samples by HPLC-EC. Format: physicochemical, human. The procedure: as §2
as §1, with “A batch of up to 20 samples can be extracted and processed at the same time. An aliquot of 20 μl of 1-propanol extract from a vial is injected immediately onto an automated HPLC.” left out, “hours. […]” for “hours.”

Molecules are shown by their SMILES.

Turning to `COC1=C(OC)C(=O)C(C/C=C(\C)CC/C=C(\C)CC/C=C(\C)CC/C=C(\C)CC/C=C(\C)CC/C=C(\C)CC/C=C(\C)CC/C=C(\C)CC/C=C(\C)CCC=C(C)C)=C(C)C1=O` [CoQ10, ubiquinone-10, reference compound], the solubility in alcohols entry in series [1] is “highest solubility in 1-propanol”.
For `COc1c(O)c(C)c(C/C=C(\C)CC/C=C(\C)CC/C=C(\C)CC/C=C(\C)CC/C=C(\C)CC/C=C(\C)CC/C=C(\C)CC/C=C(\C)CC/C=C(\C)CCC=C(C)C)c(O)c1OC` [CoQ10H2], the “stability in ethanol solution” value in series [2] (extracted from plasma, prepared in ethanol solution (Okamoto et al)) is listed as “rapidly oxidized”. The “percentage of CoQ10H2 with respect to the TQ10” value in series [2] (plasma, one day, 2° C. and −10° C. (Okamoto et al)) is on record as “constant”. In addition, the “rate of spontaneous oxidation to CoQ10” value in series [2] (room temperature) was around 2 nM per min. For the same compound, the “loss of CoQ10H2” value was 1% in series [3] (in 5 hours, 0-4° C.); “approximately 15%” in series [4] (EDTA-anticoagulated blood, within 4 hours, 4° C.); below 3% in series [4] (blood in VACUTAINERS at +4° C., 24 hours); below 1% in series [4] (heparin-anticoagulated blood, within 4 hours, 4° C.). For the same compound, the CoQ10H2 oxidized in series [3] (in an hour, room temperature) came out at 3.75%. In series [3] (room temperature), the “rate of CoQ10H2 oxidation” value is recorded as around 2 nM/min. For the same compound, the “decrease of CoQ10H2:TQ10 ratio” value in series [4] (EDTA blood, vacutainers opened, refrigerated, over 7 h, n=30) was around 30%; in series [4] (closed heparin vacutainers, refrigerated, after 48 h), around 6%; in series [4] (closed heparin vacutainers, refrigerated, after 72 h), around 28%. In addition, the “time CoQ10H2 is stable” value in series [4] (blood in closed heparin VACUTAINERS kept refrigerated) was “at least 24 hours”; in series [5], “at least 6 months”. The “median CoQ10H2:TQ10 ratio” value in series [4] (closed heparin vacutainers, initial value (0 h), n=8) stood at 0.964; in series [4] (closed heparin vacutainers, refrigerated, stored for 24 h, n=8), 0.955; in series [4] (heparinized blood, vacutainers opened, refrigerated, over 7 h, n=30) it was 0.949. The “variation of CoQ10H2:TQ10 ratio” value in series [4] (heparinized blood, vacutainers opened, refrigerated, over 7 h) is given as “less than 3%”. Also, the “mean ratio of CoQ10H2:TQ10” value in series [6] (EDTA-plasma) is 91.5(±4.4) %; in series [6] (heparinized plasma) it was 97.0(±1.4) %. For the same compound, in series [1], the solubility in alcohols result is listed as “highest solubility in 1-propanol”.
